For assay [1], the target named is T1, delF508-CFTR (Homo sapiens, UniProt P13569, DEL508-508).
T1 construct: expressed in transfected cells
Briefly: Measurement of delF508-CFTR-HRP surface expression in CFBE41o- cells. The class given is cell-based. To be noted: for pEC50: HRP-tagged delF508-CFTR in CFBE41o- cells, 24 h with compound, luminescence, 10-point curve, top 10 μM; for Emax: efficacy relative to reference compound 3-(6-(1-(2,2-difluorobenzo[d][1,3]dioxol-5-yl)cyclopropane-1-carboxamido)-3-methylpyridin-2-yl)benzoic acid, CFBE41o- cells, 24 h, read-out: DelF508-CFTR-HRP Amax %. A digest of the protocol:
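CFBE41o- cells stably expressing delF508-CFTR with HRP in the fourth extracellular loop, induced with 500 ng/mL doxycycline for 48 h, then treated with compound (top 10 μM, 10-point 3-fold) for 24 h at 37° C. Surface HRP detected by luminescence with cell-impermeant substrate; EC50 from logistic fit of triplicates, normalized to lowest concentration.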

The target of assay [2] is T1, delF508-CFTR. Briefly: delF508-CFTR functional activity in primary human bronchial epithelial cells (HBECs), Multi-Transepithelial Clamp Circuit (MTECC-24) assay. The class given is cell-based. To be noted: for pEC50: primary human delF508-CFTR bronchial epithelial cells, 24 h with compound, equivalent short circuit current (Ieq), forskolin plus potentiator, mean of at least two replicates, read-out: MTECC24-CFHBEC EC50; for MTECC24-CFHBEC Amax %: test compound added 24 h before assay, with potentiator (S)-3-amino-6-methoxy-N-(3,3,3-trifluoro-2-hydroxy-2-methylpropyl)-5-(trifluoromethyl)picolinamide, relative to 2 μM 3-(6-(1-(2,2-difluorobenzo[d][1,3]dioxol-5-yl)cyclopropane-1-carboxamido)-3-methylpyridin-2-yl)benzoic acid + 0.5 μM N-(2,4-di-tert-butyl-5-hydroxyphenyl)-4-oxo-1,4-dihydroquinoline-3-carboxamide. The source says:
Measurement of delF508-CFTR Functional Activity in Primary Human Bronchial Epithelial Cells (HBECs) Using Multi-Transepithelial Clamp Circuit (MTECC-24) Assay
This assay measures the functional activity of the CFTR channel (Chloride ion transport) in patient derived primary human bronchial epithelial cells with forskolin activation and in the presence of the CFTR corrector/potentiator combination.
Primary human delF508-CFTR bronchial epithelial cells were and cultured according to previously established methods (Neuberger, T. et, al., Methods in Molecular Biology, 2011, 741, pp 39-54). Briefly, before thawing the HBEC cells, T25 flasks were coated with 2 mL of 3T3 conditioned media (MTI-GlobalStem, Cat #GSM9100) for at least 12 hours in 37° C. CO2 incubator. 1.7×10^5 cells were seeded into one T25 flask with 5 mL of HBE growth media (BEBM with supplements (Lonza, Cat #CC-3170) with 10 nM of retinoic acid (Sigma, Cat #R-2625) and 1% of PSA (Hyclone, Cat #SV30079.01). Media was changed every day till the cells were 100% confluent. Cells were seeded into T75 flasks (pre-coated with 5 mL of 3T3 conditioned media for more than 12 hrs) at 4.95×10^5 cells/T75 flask in 15 mL of HBE growth media. Flasks were fed everyday with fresh HBE growth media until the cells were confluent. 24-well transwell plates (Corning, Cat #3378) were coated with 3T3 conditioned media (70 μL on top of the filter, 350 μL to the bottom of the well) overnight in the 37° C. CO2 incubator. Cells were seeded in the pre-coated 24-well transwell plates at 1.7×10^5 cell/well with 700 μL of growth media at the bottom of the well and 200 μL of growth media at the top of the filter. After 24 hrs, cells were switched into HBE differentiation media ((DMEM/F12 (Gibco, Cat #11330-032) supplement with 2% Ultroser G (Pall, Cat #15950-017), 2% of Fetal Clone II (Hyclone, Cat #SH30066.03), 0.25% Bovine Brain Extract (Lonza, Cat #CC-4098), 1% of PSA, 2.5 μg/mL of Insulin (Sigma, Cat #19278), 20 nM of Hydrocortisone (Sigma, Cat #H0888), 500 nM of Triiodothyronine (Sigma, Cat #T6397), 2.5 μg/mL of Transferrin (Sigma, Cat #T8158), 250 nM of Ethanolamine (Sigma, Cat #E0135), 1.5 μM of Epinephrine (Sigma, Cat #E4250), 250 nM of Phosphoethanolamine (Sigma, Cat #P0503), 10 nM of retinoic acid)) with 200 μL on top of the filter (apical side) and 700 μL at the bottom of the well (basolateral side). Cells were fed every other day with the differentiation media. After 4 days, cells were exposed to air/liquid interface. Then cells were fed every other day for 4 weeks before fully differentiated.
Cells were washed with 3 mM DTT in PBS at 70 ul/well for 30 min at 37° C. 6 days before the assay. 3 days before the assay, cells were washed again with PBS at 70 ul/well for 30 min at 37° C. Then cells were treated with compound for 24 hrs before the assay.
Following 24 hr treatment with compound, cells were transferred into plates containing 750 ul of assay media on basolateral side and 250 ul on apical side (Assay medium: F-12 Coon's modified, 20 mM HEPES pH7.4 with TRIS Base, No FCS or bicarbonate). The plates wee then transferred to the heated plate compartments (basolateral buffer temperature ˜36.5° C. on the heating block) of the TECC24 system for 45 mins prior to measurements.
Modulators were added sequentially as follows while the TECC24 instrument recorded the equivalent short circuit current (Ieq):
Prior to dilution into assay medium the stocks were as follows: • Benzamil stock: 10 mM in DMSO • Forskolin Stock: 50 mM in DMSO • N-(2,4-di-tert-butyl-5-hydroxyphenyl)-1,4-dihydro-4-oxoquinoline-3-carboxamide: 50 mM in DMSO • (S)-3-amino-6-methoxy-N-(3,3,3-trifluoro-2-hydroxy-2-methylpropyl)-5-(trifluoromethyl)picolinamide: 50 mM stock 100% DMSO • Bumetanide stock: 20 mM in EtOH
The data was normalized using the median signal from wells treated with 0.1% DMSO as a baseline. Curve fitting and EC50 calculations were performed using the following equation: […]

pEC50: −log10 of the molar value.

T1 sequence (P13569 with tags, fused parts or gaps DEL508-508): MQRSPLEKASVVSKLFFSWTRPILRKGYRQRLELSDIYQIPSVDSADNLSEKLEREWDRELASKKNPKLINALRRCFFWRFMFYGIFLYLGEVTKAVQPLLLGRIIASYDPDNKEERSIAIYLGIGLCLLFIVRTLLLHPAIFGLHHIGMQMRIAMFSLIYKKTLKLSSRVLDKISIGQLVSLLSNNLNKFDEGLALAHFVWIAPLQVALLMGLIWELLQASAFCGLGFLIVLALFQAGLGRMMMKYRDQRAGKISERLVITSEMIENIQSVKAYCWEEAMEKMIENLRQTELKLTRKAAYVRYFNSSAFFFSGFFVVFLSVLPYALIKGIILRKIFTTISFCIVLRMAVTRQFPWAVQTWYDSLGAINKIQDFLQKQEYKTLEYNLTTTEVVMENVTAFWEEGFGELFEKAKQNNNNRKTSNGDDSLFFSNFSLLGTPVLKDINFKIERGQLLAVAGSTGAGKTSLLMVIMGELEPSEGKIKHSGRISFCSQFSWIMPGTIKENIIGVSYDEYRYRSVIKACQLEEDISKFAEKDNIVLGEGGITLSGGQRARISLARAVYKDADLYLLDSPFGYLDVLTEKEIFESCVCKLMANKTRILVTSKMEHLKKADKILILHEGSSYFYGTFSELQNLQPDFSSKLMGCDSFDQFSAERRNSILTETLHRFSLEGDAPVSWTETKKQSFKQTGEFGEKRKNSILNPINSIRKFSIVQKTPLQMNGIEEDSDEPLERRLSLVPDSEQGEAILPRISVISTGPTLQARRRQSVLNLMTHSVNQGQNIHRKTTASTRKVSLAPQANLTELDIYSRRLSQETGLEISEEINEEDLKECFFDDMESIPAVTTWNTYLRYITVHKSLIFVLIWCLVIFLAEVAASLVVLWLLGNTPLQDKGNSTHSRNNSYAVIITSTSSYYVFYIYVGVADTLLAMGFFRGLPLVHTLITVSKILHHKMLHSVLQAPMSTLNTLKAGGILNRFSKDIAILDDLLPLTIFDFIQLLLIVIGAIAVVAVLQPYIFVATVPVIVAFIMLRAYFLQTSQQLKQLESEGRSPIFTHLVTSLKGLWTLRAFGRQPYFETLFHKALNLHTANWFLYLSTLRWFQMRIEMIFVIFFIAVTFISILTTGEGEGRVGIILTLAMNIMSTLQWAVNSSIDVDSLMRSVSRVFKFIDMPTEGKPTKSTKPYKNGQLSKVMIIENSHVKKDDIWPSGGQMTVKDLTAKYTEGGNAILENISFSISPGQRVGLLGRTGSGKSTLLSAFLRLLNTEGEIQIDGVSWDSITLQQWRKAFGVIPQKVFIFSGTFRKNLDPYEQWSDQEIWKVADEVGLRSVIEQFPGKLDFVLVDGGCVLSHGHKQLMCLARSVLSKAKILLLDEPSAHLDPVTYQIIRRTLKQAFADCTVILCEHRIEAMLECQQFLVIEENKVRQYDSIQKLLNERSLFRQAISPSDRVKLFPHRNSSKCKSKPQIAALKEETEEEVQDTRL

In the case of `Cc1ccccc1-c1nc(NS(=O)(=O)c2cccc(N(CCC(=O)O)C3CC3)n2)ccc1C(F)(F)F` [Compound 118, 3-(cyclopropyl(6-(N-(6-(o-tolyl)-5-(trifluoromethyl)pyridin-2-yl)sulfamoyl)pyridin-2-yl)amino)propanoic Acid], on delF508-CFTR [1], the pEC50 (as a rule, the EC50 on a negative log10 scale, so that one unit is a factor of ten) is 5.73 and the Emax was 563%. Also, on delF508-CFTR [2], the pEC50 is 6.57 and the “MTECC24-CFHBEC Amax %” value was 151%.
`CCc1ccc(F)cc1-c1nc(NS(=O)(=O)c2cccc(N(CC)CCC(=O)O)n2)ccc1C(F)(F)F` [Compound 81, 3-(ethyl(6-(N-(6-(2-ethyl-5-fluorophenyl)-5-(trifluoromethyl)pyridin-2-yl)sulfamoyl)pyridin-2-yl)amino)propanoic Acid]: the pEC50 at delF508-CFTR [1] is 5.75. Further, on delF508-CFTR [2], the pEC50 is 7.46 and the “MTECC24-CFHBEC Amax %” value was determined as 145%.
In the same order, the values of `Cc1ccc(F)cc1-c1nc(NS(=O)(=O)c2cccc(N(CCC(=O)O)CC(C)C)n2)ccc1C(F)(F)F` [Compound 126, 3-((6-(N-(6-(5-fluoro-2-methylphenyl)-5-(trifluoromethyl)pyridin-2-yl)sulfamoyl)pyridin-2-yl)(isobutyl)amino)propanoic Acid] are 6.01, 7.85 and 207%.
Turning to `CCN(CCCC(=O)O)c1cccc(S(=O)(=O)Nc2ccc(C(F)(F)F)c(-c3ccccc3C)n2)n1` [Compound 114, 4-(ethyl(6-(N-(6-(o-tolyl)-5-(trifluoromethyl)pyridin-2-yl)sulfamoyl)pyridin-2-yl)amino)butanoic Acid], the pEC50 is 5.77 on delF508-CFTR [1] and 7.00 on delF508-CFTR [2]. The “MTECC24-CFHBEC Amax %” value on delF508-CFTR [2] is 211%.
In the same order, the values of `CC(C)c1ccccc1-c1nc(NS(=O)(=O)c2cccc(N(C)CCCC(=O)O)n2)ccc1C(F)(F)F` [Compound 90, 4-((6-(N-(6-(2-isopropylphenyl)-5-(trifluoromethyl)pyridin-2-yl)sulfamoyl)pyridin-2-yl)(methyl)amino)butanoic Acid] are 5.87, 8.30 and 135%.
Consider `Cc1ccc(F)cc1-c1nc(NS(=O)(=O)c2cccc(N3CCC[C@](C)(CC(=O)O)C3)n2)ccc1C(F)(F)F` (single isomer, unassigned) [Compound 65], for which the negative-log EC50 (pEC50) at delF508-CFTR [1] is 5.76. Also, on delF508-CFTR [2], the negative logarithm of the EC50 (pEC50) is 7.51 and the “MTECC24-CFHBEC Amax %” value worked out at 155%.
In the same order, the values of `Cc1ccc(F)cc1-c1nc(NS(=O)(=O)c2cccc(N(CCCC(=O)O)CC(C)C)n2)ccc1C(F)(F)F` [Compound 127, 4-((6-(N-(6-(5-fluoro-2-methylphenyl)-5-(trifluoromethyl)pyridin-2-yl)sulfamoyl)pyridin-2-yl)(isobutyl)amino)butanoic Acid] are 6.14, 7.68 and 247%.
In the same order, the values of `Cc1ccc(F)cc1-c1nc(NS(=O)(=O)c2cccc(N(C)CCCC(=O)O)n2)ccc1C(F)(F)F` [Compound 92, 4-((6-(N-(6-(5-fluoro-2-methylphenyl)-5-(trifluoromethyl)pyridin-2-yl)sulfamoyl)pyridin-2-yl)(methyl)amino)butanoic Acid] are 5.74, 6.40 and 123%.
Take `CCCCN(CCCC(=O)O)c1cccc(S(=O)(=O)Nc2ccc(C(F)(F)F)c(-c3cc(F)ccc3C)n2)n1` [Compound 102, 4-(butyl(6-(N-(6-(5-fluoro-2-methylphenyl)-5-(trifluoromethyl)pyridin-2-yl)sulfamoyl)pyridin-2-yl)amino)butanoic Acid]: at delF508-CFTR [1], the negative-log EC50 (pEC50) was 5.90. On delF508-CFTR [2], the negative-log EC50 (pEC50) was 6.88 and the “MTECC24-CFHBEC Amax %” value was determined as 298%.
For `CCc1ccccc1-c1nc(NS(=O)(=O)c2cccc(N(CC)CCC(=O)O)n2)ccc1C(F)(F)F` [Compound 72, 3-(ethyl(6-(N-(6-(2-ethylphenyl)-5-(trifluoromethyl)pyridin-2-yl)sulfamoyl)pyridin-2-yl)amino)propanoic Acid], the pEC50 at delF508-CFTR [1] is 5.73. At delF508-CFTR [2], the negative logarithm of the EC50 (pEC50) is 6.94 and the “MTECC24-CFHBEC Amax %” value came out at 118%.
`Cc1ccccc1-c1nc(NS(=O)(=O)c2cccc(N(CCCC(=O)O)C3CC3)n2)ccc1C(F)(F)F` [Compound 125, 4-(cyclopropyl(6-(N-(6-(o-tolyl)-5-(trifluoromethyl)pyridin-2-yl)sulfamoyl)pyridin-2-yl)amino)butanoic Acid]: at delF508-CFTR [1], the pEC50 was 5.87 and the Emax was 643%. On delF508-CFTR [2], the negative-log EC50 (pEC50) is 6.37 and the “MTECC24-CFHBEC Amax %” value came to 114%.
For `Cc1ccc(F)cc1-c1nc(NS(=O)(=O)c2cccc(N(C)CCCCC(=O)O)n2)ccc1C(F)(F)F` [Compound 68, 5-((6-(N-(6-(5-fluoro-2-methylphenyl)-5-(trifluoromethyl)pyridin-2-yl)sulfamoyl)pyridin-2-yl)(methyl)amino)pentanoic Acid], in that order: 5.87, 996%, 6.37 and 116%.
With `Cc1ccccc1-c1nc(NS(=O)(=O)c2cccc(N(CCCC(=O)O)CC(C)C)n2)ccc1C(F)(F)F` [Compound 129, 4-(isobutyl(6-(N-(6-(o-tolyl)-5-(trifluoromethyl)pyridin-2-yl)sulfamoyl)pyridin-2-yl)amino)butanoic Acid], the pEC50 on delF508-CFTR [1] is 5.97. Besides, at delF508-CFTR [2], the pEC50 was 6.81 and the “MTECC24-CFHBEC Amax %” value turned out to be 83%.
For `CCN(CCC(=O)O)c1cccc(S(=O)(=O)Nc2ccc(C(F)(F)F)c(-c3ccccc3C(C)C)n2)n1` [Compound 70, 3-(ethyl(6-(N-(6-(2-isopropylphenyl)-5-(trifluoromethyl)pyridin-2-yl)sulfamoyl)pyridin-2-yl)amino)propanoic Acid], in that order: 5.80, 7.17 and 126%.
In the case of `CCCN(CCCC(=O)O)c1cccc(S(=O)(=O)Nc2ccc(Cl)c(-c3ccccc3C)n2)n1` [Compound 156, 4-((6-(N-(5-chloro-6-(o-tolyl)pyridin-2-yl)sulfamoyl)pyridin-2-yl)(propyl)amino)butanoic Acid], on delF508-CFTR [1], the negative-log EC50 (pEC50) is 6.04 and the Emax stood at 549%. Besides, on delF508-CFTR [2], the negative logarithm of the EC50 (pEC50) was 6.64 and the “MTECC24-CFHBEC Amax %” value was determined as 158%.

Source of the values: patent US20220127247A1, “N-(PYRIDIN-2-YL)PYRIDINE-SULFONAMIDE DERIVATIVES AND THEIR USE IN THE TREATMENT OF DISEASE” (NOVARTIS AG, priority 2019, published 2022).
